One block for each compound: values may come before it. Calls of active or inactive are those of the source.
How the values were obtained:
Cytochrome P450 2C9 = Cytochrome P450 2C9 (Homo sapiens, UniProt P11712)
[1] = molecular target: T1, Short transient receptor potential channel 4 (Mus musculus, UniProt Q9QUQ5); experiment: mouse TRPC4 channel inhibitors, dose response, cell-based, HEK293 TRPC4/mu-opioid, Fluo-4 calcium (AID 434942); assay type: functional;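 further: potency of inhibitors blocking the TRPC4 calcium response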
T1 sequence (Q9QUQ5 whole entry): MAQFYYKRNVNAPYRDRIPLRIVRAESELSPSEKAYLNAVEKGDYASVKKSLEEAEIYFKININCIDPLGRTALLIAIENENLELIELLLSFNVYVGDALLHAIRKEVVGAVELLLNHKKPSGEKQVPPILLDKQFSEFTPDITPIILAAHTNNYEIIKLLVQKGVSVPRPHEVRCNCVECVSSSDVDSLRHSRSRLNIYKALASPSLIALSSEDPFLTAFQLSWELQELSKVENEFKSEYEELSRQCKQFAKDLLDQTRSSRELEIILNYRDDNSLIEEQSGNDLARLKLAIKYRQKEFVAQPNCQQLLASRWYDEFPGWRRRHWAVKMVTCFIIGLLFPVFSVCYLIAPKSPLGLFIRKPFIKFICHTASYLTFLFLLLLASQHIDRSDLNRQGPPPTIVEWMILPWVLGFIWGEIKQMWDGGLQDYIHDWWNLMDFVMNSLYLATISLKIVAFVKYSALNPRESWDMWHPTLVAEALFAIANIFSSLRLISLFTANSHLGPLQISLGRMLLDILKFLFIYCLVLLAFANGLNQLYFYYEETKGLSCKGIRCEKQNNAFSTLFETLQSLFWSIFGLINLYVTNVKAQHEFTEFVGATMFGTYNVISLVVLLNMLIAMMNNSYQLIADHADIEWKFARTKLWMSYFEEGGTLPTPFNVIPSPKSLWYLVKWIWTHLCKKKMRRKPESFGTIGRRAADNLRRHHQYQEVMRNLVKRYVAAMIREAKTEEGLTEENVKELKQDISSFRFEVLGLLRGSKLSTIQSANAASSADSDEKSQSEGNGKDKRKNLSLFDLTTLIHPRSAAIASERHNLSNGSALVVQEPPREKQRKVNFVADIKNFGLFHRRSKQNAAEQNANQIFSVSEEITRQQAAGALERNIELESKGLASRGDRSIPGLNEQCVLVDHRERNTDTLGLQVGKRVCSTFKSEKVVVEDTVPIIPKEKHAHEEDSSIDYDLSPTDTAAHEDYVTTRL

HEK293 [2] = experiment: cells; assay type: functional, cell-based; settings: Homo sapiens
HEK293 [3] = experiment: cells; assay type: functional, cell-based; settings: Homo sapiens; remark: listed apart in the source
[4] = molecular target: Nucleotide-binding oligomerization domain-containing protein 2 (Homo sapiens, UniProt Q9HC29); experiment: NOD2 signaling inhibitors, cell-based, luminescence, uHTS, HEK293 (AID 1566); assay type: functional
HEK293 [5] = experiment: cells; assay type: functional, cell-based; settings: Homo sapiens; remark: listed apart in the source
HEK293 [6] = experiment: NOD2 signaling inhibitors in MDP-stimulated cells, cell-based, uHTS, luminescence (AID 2001); assay type: functional; settings: Homo sapiens
HEK293 [7] = experiment: NOD1 signaling inhibitors, primary screen, cell-based, luminescence, uHTS (AID 1578); assay type: functional; settings: Homo sapiens
Cytochrome P450 3A4 = Cytochrome P450 3A4 (Homo sapiens, UniProt P08684); settings: Potency;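 further: confirmatory qHTS run detecting inhibitors and substrates of CYP3A4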
Cytochrome P450 3A4, sequence (P08684 whole entry): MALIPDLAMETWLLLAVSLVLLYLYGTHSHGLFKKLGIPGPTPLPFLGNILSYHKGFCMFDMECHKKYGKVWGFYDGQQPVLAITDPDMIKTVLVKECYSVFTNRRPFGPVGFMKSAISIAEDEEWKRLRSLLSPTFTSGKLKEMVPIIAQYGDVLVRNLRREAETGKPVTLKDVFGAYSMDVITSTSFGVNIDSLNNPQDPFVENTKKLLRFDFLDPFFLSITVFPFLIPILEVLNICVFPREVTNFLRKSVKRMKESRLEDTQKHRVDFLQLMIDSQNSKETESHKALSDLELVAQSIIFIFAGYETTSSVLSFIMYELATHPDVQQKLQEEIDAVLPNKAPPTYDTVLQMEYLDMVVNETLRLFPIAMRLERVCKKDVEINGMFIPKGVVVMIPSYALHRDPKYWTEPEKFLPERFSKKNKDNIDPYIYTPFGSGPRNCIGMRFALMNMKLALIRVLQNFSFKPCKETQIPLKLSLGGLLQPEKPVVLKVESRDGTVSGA

Cytochrome P450 2C9, sequence (P11712 whole entry): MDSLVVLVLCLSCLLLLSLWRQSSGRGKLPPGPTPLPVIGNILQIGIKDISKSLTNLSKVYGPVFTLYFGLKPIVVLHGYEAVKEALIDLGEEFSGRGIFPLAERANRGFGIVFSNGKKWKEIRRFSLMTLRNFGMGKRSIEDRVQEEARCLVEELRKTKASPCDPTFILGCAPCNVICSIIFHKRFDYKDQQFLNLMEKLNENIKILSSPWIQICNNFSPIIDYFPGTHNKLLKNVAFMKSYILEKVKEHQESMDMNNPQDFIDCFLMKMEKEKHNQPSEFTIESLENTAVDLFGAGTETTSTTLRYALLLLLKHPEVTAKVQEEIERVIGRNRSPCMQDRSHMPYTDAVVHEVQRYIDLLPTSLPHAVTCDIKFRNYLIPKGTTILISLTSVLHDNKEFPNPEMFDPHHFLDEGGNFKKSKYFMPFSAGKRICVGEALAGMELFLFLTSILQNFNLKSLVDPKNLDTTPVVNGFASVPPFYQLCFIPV
Nucleotide-binding oligomerization domain-containing protein 2, sequence (Q9HC29 whole entry, the tested form may be a part): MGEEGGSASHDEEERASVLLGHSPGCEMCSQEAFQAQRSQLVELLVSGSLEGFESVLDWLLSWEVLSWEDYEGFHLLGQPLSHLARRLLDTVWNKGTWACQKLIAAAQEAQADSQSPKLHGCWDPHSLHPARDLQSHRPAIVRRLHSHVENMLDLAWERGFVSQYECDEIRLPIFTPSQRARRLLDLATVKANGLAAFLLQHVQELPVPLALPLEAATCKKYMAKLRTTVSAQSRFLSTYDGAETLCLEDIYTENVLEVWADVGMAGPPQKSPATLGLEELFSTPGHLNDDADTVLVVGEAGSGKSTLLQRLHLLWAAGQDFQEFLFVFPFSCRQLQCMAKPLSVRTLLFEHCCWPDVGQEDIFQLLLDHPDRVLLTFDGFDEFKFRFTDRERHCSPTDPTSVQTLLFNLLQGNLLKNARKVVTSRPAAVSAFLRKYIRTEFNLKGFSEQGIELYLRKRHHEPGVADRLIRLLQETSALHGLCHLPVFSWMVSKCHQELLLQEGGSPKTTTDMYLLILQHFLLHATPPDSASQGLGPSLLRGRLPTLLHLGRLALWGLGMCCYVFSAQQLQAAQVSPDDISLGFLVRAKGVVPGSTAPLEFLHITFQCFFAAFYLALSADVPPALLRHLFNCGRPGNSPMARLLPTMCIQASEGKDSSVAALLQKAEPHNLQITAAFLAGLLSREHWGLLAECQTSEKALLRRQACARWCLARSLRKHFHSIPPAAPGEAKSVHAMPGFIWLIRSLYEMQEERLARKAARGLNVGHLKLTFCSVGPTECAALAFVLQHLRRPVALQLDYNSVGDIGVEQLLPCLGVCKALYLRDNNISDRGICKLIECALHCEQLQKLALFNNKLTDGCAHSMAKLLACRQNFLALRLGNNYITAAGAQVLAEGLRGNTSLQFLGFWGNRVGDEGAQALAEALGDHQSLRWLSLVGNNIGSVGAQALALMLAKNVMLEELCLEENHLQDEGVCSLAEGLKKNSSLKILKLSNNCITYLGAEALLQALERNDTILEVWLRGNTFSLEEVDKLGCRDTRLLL

Structure (SMILES): O=S(=O)(CC(O)COc1ccccc1Cl)c1ccccc1 (stereo not given)
AC50 (Cytochrome P450 2C9): inconclusive

Structure (SMILES): O=C(c1cccc(C(F)(F)F)c1)C1CCCN(Cc2ccccc2O)C1 (stereo not given)
EC50 [1]: 2.37 µM (active)

Structure (SMILES): COc1ccc(CNC(=O)c2ccc3ccccc3n2)cc1OC
IC50 (HEK293 [2]): 14.5 µM (active)
IC50 (HEK293 [3]): > 20 µM (inactive)
EC50 [4]: 11.7 µM (active)
IC50 (HEK293 [5]): > 20 µM (inactive)
IC50 (HEK293 [6]): > 20 µM (inactive)
EC50 (HEK293 [7]): 7.83 µM (active)

Structure (SMILES): COc1ccccc1-c1oc2ccccc2c(=O)c1OC
AC50 (Cytochrome P450 3A4): 20 µM (inconclusive)

Structure (SMILES): CC(C(=O)O)c1ccc(N2Cc3ccccc3C2=O)cc1 (stereo not given) [INDOPROFEN]
AC50 (Cytochrome P450 3A4): 39.8 µM (inconclusive)

Structure (SMILES): CNC(=O)N(C)c1nnc(C(C)(C)C)s1 [TEBUTHIURON]
AC50 (Cytochrome P450 3A4): 12.6 µM (inconclusive)

The next lines start with the values.

EC50 [1]: 5.31 µM (active)
Structure (SMILES): Cc1ccccc1CN1CCCC(C(=O)Nc2ccccc2Oc2cccnc2)C1 (stereo not given)

AC50 (Cytochrome P450 2C9): inconclusive
Structure (SMILES): CN(C)C(=O)c1ccc(-n2nc(C(F)(F)F)c3c2CCCC3)cc1

EC50 [1]: 6.68 µM (active)
Structure (SMILES): O=C1CN=C(Nc2cccc(C(F)(F)F)c2)N1C1CCCC1

AC50 (Cytochrome P450 3A4): 10 µM (inconclusive)
Structure (SMILES): COc1cc(-c2oc3cc(O)ccc3c(=O)c2O)ccc1O [GERALDOL]

From ChEMBL document CHEMBL1201862, “PubChem BioAssay data set” (2004)
